Data from PubChem BioAssay (NCI).
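Method: 48-hour compound exposure of cells in 96-well plates, five concentrations, linear interpolation of endpoints. Here, GI50 denotes the concentration required for 50% inhibition of growth. TGI denotes the concentration required for complete inhibition of growth.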

Tests used:
Assay in all cases: growth of human tumour cells (NCI), 48 h
[1] = tested on: MOLT-4 leukemia
[2] = tested on: UO-31 renal
[3] = tested on: HOP-92 NSCLC
[4] = tested on: HCT-15 colon
[5] = tested on: DU-145 prostate
[6] = tested on: SR leukemia
[7] = tested on: SK-MEL-5 melanoma
[8] = tested on: HCT-116 colon
[9] = tested on: BT-549 breast
[10] = tested on: OVCAR-4 ovarian

| Structure (SMILES) | GI50 [1] [µM] | TGI [1] [µM] | GI50 [2] [µM] | TGI [2] [µM] | GI50 [3] [µM] | TGI [3] [µM] | GI50 [4] [µM] | TGI [4] [µM] | GI50 [5] [µM] | TGI [5] [µM] | GI50 [6] [µM] | TGI [6] [µM] | GI50 [7] [µM] | TGI [7] [µM] | GI50 [8] [µM] | TGI [8] [µM] | GI50 [9] [µM] | TGI [9] [µM] | GI50 [10] [µM] | TGI [10] [µM] |
| --- | --- | --- | --- | --- | --- | --- | --- | --- | --- | --- | --- | --- | --- | --- | --- | --- | --- | --- | --- | --- |
| O=C(/C=C/c1ccc(O)c(O)c1)N1CCN(c2ccc(Cl)cc2)CC1 | 3.47 | > 100 | 2.08 | 20.1 | 2.42 | 23.4 | 3.83 | 29.2 | 10.5 | 47.5 | 3.94 | 34 | 2.65 | 10.2 | 5.18 | 19.8 | 5.21 | 45.6 | 3.48 | 39.5 |
| Cc1cc(C)c2nc3c(c(C(O)C4CCCCN4)c2c1)CC/C3=C\c1ccc(Cl)cc1 (centres undefined) | – | > 100 | – | – | – | > 100 | – | > 100 | – | > 100 | – | > 100 | – | 92.2 | – | > 100 | – | > 100 | – | > 100 |
| Cc1ccc(-c2nc(NCCOCCOCCN)nc(N3CCN(c4ccccn4)CC3)n2)cc1 | 15.8 | 36 | 13.3 | 29.9 | 4.15 | 19 | 10.1 | 29.8 | 16.6 | 31.1 | 5.5 | 20.7 | 11.8 | 25.1 | 10 | 27.8 | 14.1 | 29.2 | 14.7 | 29.3 |
